Results taken from publication PMC9904262, “Omics analysis of Mycobacterium tuberculosis isolates uncovers Rv3094c, an ethionamide metabolism-associated gene” (Communications Biology, 2023).

B1: Rv3094c (enzyme)
chain: NQSETEIEILAEKIARWARARSAEIERDRRLPDELVTRLREAGLLRATMPREVAAPELAPGRALRCAEAVARGDASAGWCVSIAITSALLVAYLPARSREEMFGGGRGVAAGVWAPRGTARSVDGGVVVSGRWPFCSGINHADIMFAGCFVDDRQVPSVVALNKDELQVLDTWHTLGLRGTGSHDCVADDVFVPADRVFSVFDGPIVDRPLYRFPVFGFFALSIGAAALGNARAAIDDLVELAGGKKGLGSTRTLAERSATQAAAATAESALGAARALFYEVIEAAWQVSHDAEAVPVTMRNRLRLAATHAVRTSADVVRSMYDLAGGTAIYDNAPLQRRFRDAFTATAHFQVNEASRELPGRVLLDQPADVSML
notes: also called apo-Rv3094c; Rv3094c-FMN

Assays:
EthA = target: T1, EthA (Mycobacterium tuberculosis, UniProt P9WNF9); type: cell-based; conditions: ethionamide 80 µg/ml (Methods), 37 °C, up to 6 h
T1 construct: N-terminal 6xHis tag kept (pET28a), expressed in intact E. coli BL21(DE3); not purified

Rv3094c [1] = target: T2, Rv3094c (Mycobacterium tuberculosis, UniProt O05773)
Rv3094c [2] = target: T2, Rv3094c; remark: listed apart in the source
[3] = target: the molecule itself; assay: crystal structure; crystals of apo-Rv3094c, Rv3094c-FMN and Rv3094c-FMN-ETH; 0.2 M sodium nitrate, 0.1 M Bis Tris propane pH 8.5, 20% PEG3350, 16 °C; multimeric state analysed with PDBePISA

T2 sequence (O05773 entry or part of it): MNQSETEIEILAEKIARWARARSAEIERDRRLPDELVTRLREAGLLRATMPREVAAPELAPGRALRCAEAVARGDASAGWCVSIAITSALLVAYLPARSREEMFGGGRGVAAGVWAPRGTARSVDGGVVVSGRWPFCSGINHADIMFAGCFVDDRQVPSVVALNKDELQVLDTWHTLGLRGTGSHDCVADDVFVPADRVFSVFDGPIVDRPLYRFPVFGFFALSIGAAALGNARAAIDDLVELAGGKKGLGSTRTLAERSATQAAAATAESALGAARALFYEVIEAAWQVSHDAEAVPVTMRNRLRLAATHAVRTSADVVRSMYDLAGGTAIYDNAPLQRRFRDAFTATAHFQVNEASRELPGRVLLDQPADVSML
T1 sequence (P9WNF9 whole entry): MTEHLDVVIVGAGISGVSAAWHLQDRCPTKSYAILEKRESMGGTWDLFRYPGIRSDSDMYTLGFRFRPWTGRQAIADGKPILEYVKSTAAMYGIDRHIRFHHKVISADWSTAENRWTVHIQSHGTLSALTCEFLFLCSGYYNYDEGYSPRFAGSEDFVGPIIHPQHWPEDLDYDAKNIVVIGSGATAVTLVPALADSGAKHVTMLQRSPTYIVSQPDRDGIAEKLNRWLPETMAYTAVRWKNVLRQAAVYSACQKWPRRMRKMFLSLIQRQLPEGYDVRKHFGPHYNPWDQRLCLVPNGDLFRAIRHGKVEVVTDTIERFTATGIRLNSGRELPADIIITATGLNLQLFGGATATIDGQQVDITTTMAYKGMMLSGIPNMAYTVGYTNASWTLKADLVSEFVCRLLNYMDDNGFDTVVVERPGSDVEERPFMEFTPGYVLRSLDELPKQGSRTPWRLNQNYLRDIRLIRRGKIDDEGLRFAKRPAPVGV

Molecule	HPLC-UV of E. coli culture supernatant, LC-MS/MS (EthA)	HPLC-UV of E. coli culture supernatant, LC-MS/MS (Rv3094c [1])	X-ray crystallography (Rv3094c [2])	stoichiometry N [3]
CCc1cc(C(N)=S=O)ccn1 [ETH-SO]	We synthesized an ETH-SO standard, and confirmed the new peak to be ETH-SO	We synthesized an ETH-SO standard, and confirmed the new peak to be ETH-SO		
CCc1cc(C(N)=S)ccn1 [ethionamide]	in supernatants from Rv3094c and ethA overexpression strains declined over time	Rv3094c must be a monooxygenase that can directly sulfoxidise ethionamide, forming ETH-SO	in complex with FMN (Rv3094c-FMN; Supplementary Fig. 4b) and ethionamide (Rv3094c-FMN-ETH	
Cc1cc2nc3c(=O)[nH]c(=O)nc-3n(C[C@H](O)[C@H](O)[C@H](O)COP(=O)(O)O)c2cc1C [flavin mononucleotide]			Rv3094c in complex with FMN (Rv3094c-FMN; Supplementary Fig. 4b)	
B1				4
